Experimental data as given in ChEMBL document CHEMBL1909046, “DrugMatrix in vitro pharmacology data”.

Key:
[1] = target: Aldo-keto reductase family 1 member B1 (Rattus norvegicus, UniProt P07943); experiment: biochemical; format: tissue-based, Lens of camera-type eye;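 note: inhibition of aldose reductase enzyme activity, measured with DL-glyceraldehyde as the substrate; in other assays of this panel Not Active means under 50% inhibition at 10 µM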
[2] = target: Receptor tyrosine-protein kinase erbB-2 (Homo sapiens, UniProt P04626); format: cell-based; conditions: insect cells;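 note: inhibition of HER2 kinase enzyme activity, measured with Poly(Glu:Tyr) as the phosphorylation substrate; in other assays of this panel Not Active means under 50% inhibition at 10 µM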
Sequence of Receptor tyrosine-protein kinase erbB-2 (P04626 whole entry): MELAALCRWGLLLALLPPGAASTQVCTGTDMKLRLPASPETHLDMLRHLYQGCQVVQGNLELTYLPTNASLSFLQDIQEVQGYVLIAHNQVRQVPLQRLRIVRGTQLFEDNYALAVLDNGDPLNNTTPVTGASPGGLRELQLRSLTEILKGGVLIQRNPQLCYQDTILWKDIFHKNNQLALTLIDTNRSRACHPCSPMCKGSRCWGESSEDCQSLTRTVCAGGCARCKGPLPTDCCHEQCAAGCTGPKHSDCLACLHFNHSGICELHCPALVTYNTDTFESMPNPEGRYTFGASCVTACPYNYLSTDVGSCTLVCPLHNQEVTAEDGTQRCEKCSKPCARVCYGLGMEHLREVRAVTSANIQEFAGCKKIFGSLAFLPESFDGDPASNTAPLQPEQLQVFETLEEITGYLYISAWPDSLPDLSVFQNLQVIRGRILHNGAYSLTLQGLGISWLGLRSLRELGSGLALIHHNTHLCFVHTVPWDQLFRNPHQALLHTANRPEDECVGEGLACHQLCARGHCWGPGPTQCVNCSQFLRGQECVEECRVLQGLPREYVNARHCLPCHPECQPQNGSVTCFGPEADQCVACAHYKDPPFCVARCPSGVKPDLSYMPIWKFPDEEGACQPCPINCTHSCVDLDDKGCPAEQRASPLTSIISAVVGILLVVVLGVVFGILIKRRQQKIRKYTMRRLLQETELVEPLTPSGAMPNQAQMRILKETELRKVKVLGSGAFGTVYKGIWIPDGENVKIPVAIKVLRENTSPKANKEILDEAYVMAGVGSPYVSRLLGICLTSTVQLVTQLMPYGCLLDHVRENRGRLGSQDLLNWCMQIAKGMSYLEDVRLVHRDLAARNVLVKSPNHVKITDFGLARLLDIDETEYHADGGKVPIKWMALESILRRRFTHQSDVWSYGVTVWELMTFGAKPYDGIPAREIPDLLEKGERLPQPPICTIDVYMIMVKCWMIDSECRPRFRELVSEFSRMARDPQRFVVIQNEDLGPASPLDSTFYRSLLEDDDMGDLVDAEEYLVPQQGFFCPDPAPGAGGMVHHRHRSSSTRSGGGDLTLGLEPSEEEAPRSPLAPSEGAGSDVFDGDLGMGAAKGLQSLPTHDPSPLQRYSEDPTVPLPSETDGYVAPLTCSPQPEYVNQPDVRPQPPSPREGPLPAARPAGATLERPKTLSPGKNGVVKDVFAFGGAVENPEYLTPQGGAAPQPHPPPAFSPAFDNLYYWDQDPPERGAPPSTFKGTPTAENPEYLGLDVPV

[3] = target: T1, Amine oxidase [flavin-containing] A (Homo sapiens, UniProt P21397); experiment: DRUGMATRIX: Monoamine Oxidase MAO-A enzyme inhibition (substrate: Kynuramine); set-up: species or system BTI-TN-5B1-4; conditions: Not Active = under 50% inhibition at 10 µM
T1 sequence (P21397 whole entry): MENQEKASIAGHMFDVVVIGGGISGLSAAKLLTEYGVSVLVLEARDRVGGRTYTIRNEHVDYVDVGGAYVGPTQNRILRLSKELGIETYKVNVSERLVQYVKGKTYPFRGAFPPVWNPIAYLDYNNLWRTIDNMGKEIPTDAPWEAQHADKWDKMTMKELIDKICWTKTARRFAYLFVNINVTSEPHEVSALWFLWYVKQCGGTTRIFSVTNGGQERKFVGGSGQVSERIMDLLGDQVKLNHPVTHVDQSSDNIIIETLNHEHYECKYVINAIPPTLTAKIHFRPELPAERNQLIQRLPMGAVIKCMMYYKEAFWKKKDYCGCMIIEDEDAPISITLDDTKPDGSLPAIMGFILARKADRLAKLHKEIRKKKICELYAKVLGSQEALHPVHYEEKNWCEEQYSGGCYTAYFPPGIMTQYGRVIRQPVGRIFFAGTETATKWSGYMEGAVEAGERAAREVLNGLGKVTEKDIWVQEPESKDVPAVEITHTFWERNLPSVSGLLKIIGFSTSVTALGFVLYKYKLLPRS

[4] = target: Sigma non-opioid intracellular receptor 1 (Homo sapiens, UniProt Q99720); experiment: DRUGMATRIX: Sigma1 radioligand binding (ligand: [3H] Haloperidol); format: cell membranes, Jurkat, Membrane; conditions: jurkat; Not Active = under 50% inhibition at 10 µM
Sequence of Sigma non-opioid intracellular receptor 1 (Q99720 whole entry): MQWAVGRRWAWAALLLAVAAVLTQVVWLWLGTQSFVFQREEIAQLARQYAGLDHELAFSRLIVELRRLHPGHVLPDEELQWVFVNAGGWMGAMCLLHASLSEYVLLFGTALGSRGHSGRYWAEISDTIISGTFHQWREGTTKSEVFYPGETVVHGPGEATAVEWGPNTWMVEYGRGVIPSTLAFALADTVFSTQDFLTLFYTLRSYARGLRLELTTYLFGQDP

Cytochrome P450 2A6 = target: T2, Cytochrome P450 2A6 (Homo sapiens, UniProt P11509); conditions: bti-tn-5b1-4; note: in other assays of this panel Not Active means under 50% inhibition at 10 µM
T2 sequence (P11509 whole entry): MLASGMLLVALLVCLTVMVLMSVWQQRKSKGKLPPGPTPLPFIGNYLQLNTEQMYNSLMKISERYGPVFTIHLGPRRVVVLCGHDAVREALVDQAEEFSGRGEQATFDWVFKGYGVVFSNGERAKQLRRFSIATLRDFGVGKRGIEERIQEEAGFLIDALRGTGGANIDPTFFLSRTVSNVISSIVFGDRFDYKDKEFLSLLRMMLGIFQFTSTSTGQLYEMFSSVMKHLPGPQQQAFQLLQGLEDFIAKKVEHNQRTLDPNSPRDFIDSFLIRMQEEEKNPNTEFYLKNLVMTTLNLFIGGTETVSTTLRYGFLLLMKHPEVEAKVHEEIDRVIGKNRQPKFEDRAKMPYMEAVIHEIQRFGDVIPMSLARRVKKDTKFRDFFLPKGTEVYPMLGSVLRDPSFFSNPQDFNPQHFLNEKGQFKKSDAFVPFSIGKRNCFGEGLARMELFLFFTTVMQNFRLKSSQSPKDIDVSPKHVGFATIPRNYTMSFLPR

[5] = target: T3, Cholecystokinin receptor type A (Homo sapiens, UniProt P32238); format: cell membranes, Membrane; conditions: 1321-n1; note: in other assays of this panel Not Active means under 50% inhibition at 10 µM
T3 sequence (P32238 whole entry): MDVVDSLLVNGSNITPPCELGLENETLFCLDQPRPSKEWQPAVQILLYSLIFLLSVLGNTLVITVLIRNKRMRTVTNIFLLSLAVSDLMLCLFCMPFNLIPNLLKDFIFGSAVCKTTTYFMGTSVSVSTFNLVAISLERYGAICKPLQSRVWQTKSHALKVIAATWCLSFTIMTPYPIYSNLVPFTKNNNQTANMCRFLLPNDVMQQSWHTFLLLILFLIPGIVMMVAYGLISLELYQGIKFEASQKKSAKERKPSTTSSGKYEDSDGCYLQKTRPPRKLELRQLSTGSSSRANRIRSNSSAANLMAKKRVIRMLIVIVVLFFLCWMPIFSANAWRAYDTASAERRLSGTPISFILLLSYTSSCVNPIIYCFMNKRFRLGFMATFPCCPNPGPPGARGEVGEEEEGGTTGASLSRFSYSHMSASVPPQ

[6] = target: Sodium-dependent noradrenaline transporter (Homo sapiens, UniProt P23975); experiment: DRUGMATRIX: Norepinephrine Transporter radioligand binding (ligand: [125I] RTI-55); format: cell membranes, MDCK, Membrane; conditions: Not Active = under 50% inhibition at 10 µM
Sequence of Sodium-dependent noradrenaline transporter (P23975 whole entry): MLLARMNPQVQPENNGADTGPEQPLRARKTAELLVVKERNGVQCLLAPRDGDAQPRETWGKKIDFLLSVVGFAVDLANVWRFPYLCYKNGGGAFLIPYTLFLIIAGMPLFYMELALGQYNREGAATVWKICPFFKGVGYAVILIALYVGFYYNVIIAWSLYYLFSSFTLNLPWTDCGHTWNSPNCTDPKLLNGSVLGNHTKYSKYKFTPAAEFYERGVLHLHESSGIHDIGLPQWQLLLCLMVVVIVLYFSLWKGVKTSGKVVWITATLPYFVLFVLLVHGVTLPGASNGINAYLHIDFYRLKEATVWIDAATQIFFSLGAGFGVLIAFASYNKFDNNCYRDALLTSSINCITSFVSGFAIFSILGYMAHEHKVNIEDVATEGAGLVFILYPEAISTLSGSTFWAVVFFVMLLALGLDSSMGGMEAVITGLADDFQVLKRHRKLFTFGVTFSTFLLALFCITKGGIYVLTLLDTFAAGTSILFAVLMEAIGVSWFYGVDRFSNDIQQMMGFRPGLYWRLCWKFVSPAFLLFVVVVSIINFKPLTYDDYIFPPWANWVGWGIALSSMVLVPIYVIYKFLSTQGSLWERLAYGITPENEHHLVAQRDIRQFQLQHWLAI

| Structure (SMILES) | IC50 [1] | IC50 [2] | IC50 ([3]; bti-tn-5b1-4) | IC50 [4] | IC50 (Cytochrome P450 2A6) | Ki (Cytochrome P450 2A6) | IC50 [5] | IC50 ([6]; mdck) | IC50 ([3]; read-out: IC50) [µM] | IC50 ([6]; read-out: IC50) [µM] | Ki ([6]; read-out: Ki) [µM] |
| --- | --- | --- | --- | --- | --- | --- | --- | --- | --- | --- | --- |
| Nc1ccc(C(=O)O)c(O)c1 [AMINOSALICYLIC ACID] | Not Active | Not Active | Not Active | Not Active | Not Active | Not Active | Not Active | Not Active |  |  |  |
| Nc1nc(N)c2nc(CNc3ccc(C(=O)N[C@@H](CCC(=O)O)C(=O)O)cc3)cnc2n1 [AMINOPTERIN] | Not Active | Not Active | Not Active | Not Active | Not Active | Not Active | Not Active | Not Active |  |  |  |
| c1ccc(Cn2ccnc2)cc1 | Not Active | Not Active | Not Active | Not Active | Not Active | Not Active | Not Active | Not Active |  |  |  |
| CC(C)(C#N)c1cc(Cn2cncn2)cc(C(C)(C)C#N)c1 [ANASTROZOLE] | Not Active | Not Active | Not Active | Not Active | Not Active | Not Active | Not Active | Not Active |  |  |  |
| COc1cc(/C=C/C(=O)O)ccc1O [FERULATE] | Not Active | Not Active | Not Active | Not Active | Not Active | Not Active | Not Active | Not Active |  |  |  |
| COc1cc([C@@H]2c3cc4c(cc3[C@H](O)[C@H]3COC(=O)[C@H]23)OCO4)cc(OC)c1OC [PODOFILOX] | Not Active | Not Active | Not Active | Not Active | Not Active | Not Active | Not Active | Not Active |  |  |  |
| C[N+](C)(C)CCOC(N)=O.[Cl-] [CARBACHOL] | Not Active | Not Active | Not Active | Not Active | Not Active | Not Active | Not Active | Not Active |  |  |  |
| CC1(COc2ccc(CC3SC(=O)NC3=O)cc2)CCCCC1 (configuration not stated) [CIGLITAZONE] | Not Active | Not Active |  | Not Active | Not Active | Not Active | Not Active |  | 29.2 | 2.22 | 2.2 |
| Oc1ncnc2[nH]ncc12 [ALLOPURINOL] | Not Active | Not Active | Not Active | Not Active | Not Active | Not Active | Not Active | Not Active |  |  |  |
| Cc1cc(C(C)(C)C)c(O)c(C)c1CC1=NCCN1 [OXYMETAZOLINE] | Not Active | Not Active | Not Active | Not Active | Not Active | Not Active | Not Active | Not Active |  |  |  |
| CC(C)Cn1cnc2c(N)nc3ccccc3c21 [IMIQUIMOD] | Not Active | Not Active | Not Active | Not Active | Not Active | Not Active | Not Active | Not Active |  |  |  |
| NS(=O)(=O)c1cc(C(=O)O)c(NCc2ccco2)cc1Cl [FUROSEMIDE] | Not Active | Not Active | Not Active | Not Active | Not Active | Not Active | Not Active | Not Active |  |  |  |
